Assay results taken from ChEMBL document CHEMBL1201862, “PubChem BioAssay data set” (2004).
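48-hour exposure; five concentrations; linearly interpolated endpoints. At the GI50, growth is halved.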 Active and inactive are the calls of the source. No stated cut-off is given here; in the data, active = GI50 up to about 1.1 µM and inactive = higher.

Assays:
Test in all cases: DTP human tumour cell line panel, 48 h
786-0 = system: 786-0
A498 = system: A498
A549 = system: A549
ACHN = system: ACHN
BT-549 = system: BT-549
CAKI-1 = system: CAKI-1
CCRF-CEM = system: CCRF-CEM
COLO 205 = system: COLO 205
DU-145 = system: DU-145
EKVX = system: EKVX
HCC 2998 = system: HCC 2998
HCT-116 = system: HCT-116
HCT-15 = system: HCT-15
HL-60 = system: HL-60
HOP-62 = system: HOP-62
HOP-92 = system: HOP-92
Hs-578T = system: Hs-578T
IGROV-1 = system: IGROV-1
K562 = system: K562
KM12 = system: KM12
LOX IMVI = system: LOX IMVI
M14 = system: M14
MCF7 = system: MCF7
MDA-MB-231 = system: MDA-MB-231
MDA-MB-435 = system: MDA-MB-435
MDA-N = system: MDA-N
MOLT-4 = system: MOLT-4
Malme-3M = system: Malme-3M
NCI-H226 = system: NCI-H226
NCI-H23 = system: NCI-H23
NCI-H460 = system: NCI-H460
NCI-H522 = system: NCI-H522
NCI/ADR-RES = system: NCI/ADR-RES
OVCAR-3 = system: OVCAR-3
OVCAR-4 = system: OVCAR-4
OVCAR-5 = system: OVCAR-5
OVCAR-8 = system: OVCAR-8
PC-3 = system: PC-3
RPMI-8226 = system: RPMI-8226
RXF 393 = system: RXF 393
SF-268 = system: SF-268
SF-295 = system: SF-295
SF-539 = system: SF-539
SK-MEL-28 = system: SK-MEL-28
SK-MEL-2 = system: SK-MEL-2
SK-MEL-5 = system: SK-MEL-5
SK-OV-3 = system: SK-OV-3
SN12C = system: SN12C
SNB-19 = system: SNB-19
SR = system: SR
SW-620 = system: SW-620
T47D = system: T47D
TK-10 = system: TK-10
U-251 = system: U-251
UACC-257 = system: UACC-257
UACC-62 = system: UACC-62
HT-29 = system: HT-29
SNB-75 = system: SNB-75
UO-31 = system: UO-31

O=C1c2ccc3cc(CCl)cc(O)c3c2C(=O)c2cccc(O)c21
GI50 (786-0): 2.07 µM (inactive) | GI50 (A498): > 10 µM (inactive) | GI50 (A549): 4.61 µM (inactive) | GI50 (ACHN): 2.91 µM (inactive) | GI50 (BT-549): > 10 µM (inactive) | GI50 (CAKI-1): > 10 µM (inactive) | GI50 (CCRF-CEM): 1.07 µM (active) | GI50 (COLO 205): 1.95 µM (inactive) | GI50 (DU-145): 4.95 µM (inactive) | GI50 (EKVX): > 10 µM (inactive) | GI50 (HCC 2998): 3.17 µM (inactive) | GI50 (HCT-116): 1.1 µM (active) | GI50 (HCT-15): 1.1 µM | GI50 (HL-60): 0.284 µM (active) | GI50 (HOP-62): 3.38 µM (inactive) | GI50 (HOP-92): 4.58 µM (inactive) | GI50 (Hs-578T): > 10 µM (inactive) | GI50 (IGROV-1): > 10 µM (inactive) | GI50 (K562): 3.44 µM (inactive) | GI50 (KM12): 4.79 µM (inactive) | GI50 (LOX IMVI): 2.96 µM (inactive) | GI50 (M14): 0.239 µM (active) | GI50 (MCF7): 0.729 µM (active) | GI50 (MDA-MB-231): 1.08 µM (active) | GI50 (MDA-MB-435): 0.179 µM (active) | GI50 (MDA-N): 0.169 µM (active) | GI50 (MOLT-4): 1.37 µM (inactive) | GI50 (Malme-3M): 0.0151 µM (active) | GI50 (NCI-H226): 2.7 µM (inactive) | GI50 (NCI-H23): 3.12 µM (inactive) | GI50 (NCI-H460): 3.3 µM (inactive) | GI50 (NCI-H522): 3.28 µM (inactive) | GI50 (NCI/ADR-RES): 2.02 µM (inactive) | GI50 (OVCAR-3): 0.152 µM (active) | GI50 (OVCAR-4): 2.67 µM (inactive) | GI50 (OVCAR-5): > 10 µM (inactive) | GI50 (OVCAR-8): 2.01 µM (inactive) | GI50 (PC-3): 1.81 µM (inactive) | GI50 (RPMI-8226): 2.21 µM (inactive) | GI50 (RXF 393): 2.55 µM (inactive) | GI50 (SF-268): 2.16 µM (inactive) | GI50 (SF-295): > 10 µM (inactive) | GI50 (SF-539): 2.39 µM (inactive) | GI50 (SK-MEL-28): 1.77 µM (inactive) | GI50 (SK-MEL-2): 1.64 µM (inactive) | GI50 (SK-MEL-5): 0.604 µM (active) | GI50 (SK-OV-3): > 10 µM (inactive) | GI50 (SN12C): 1.5 µM (inactive) | GI50 (SNB-19): 4.58 µM (inactive) | GI50 (SR): 0.447 µM (active) | GI50 (SW-620): 0.145 µM (active) | GI50 (T47D): 7.48 µM (inactive) | GI50 (TK-10): > 10 µM (inactive) | GI50 (U-251): 2.72 µM (inactive) | GI50 (UACC-257): 1.17 µM (inactive) | GI50 (UACC-62): 1.22 µM (inactive)

c1ccc2c3c([nH]c2c1)C1c2[nH]c4ccccc4c2CCN1CC3
GI50 (786-0): 12.6 µM (inactive) | GI50 (A498): 19 µM (inactive) | GI50 (A549): 14.7 µM (inactive) | GI50 (ACHN): 13.8 µM (inactive) | GI50 (BT-549): 16.1 µM (inactive) | GI50 (CAKI-1): 18.7 µM (inactive) | GI50 (CCRF-CEM): 13.5 µM (inactive) | GI50 (COLO 205): 3.79 µM (inactive) | GI50 (DU-145): 13.2 µM (inactive) | GI50 (EKVX): 6.12 µM (inactive) | GI50 (HCC 2998): 7.64 µM (inactive) | GI50 (HCT-116): 10.2 µM (inactive) | GI50 (HCT-15): 11 µM | GI50 (HL-60): 16.8 µM (inactive) | GI50 (HOP-62): 13.6 µM (inactive) | GI50 (HOP-92): 2.03 µM (inactive) | GI50 (HT-29): 10.9 µM (inactive) | GI50 (Hs-578T): 17.3 µM (inactive) | GI50 (IGROV-1): 12.7 µM (inactive) | GI50 (K562): 5.78 µM (inactive) | GI50 (KM12): 12.5 µM (inactive) | GI50 (LOX IMVI): 11.6 µM (inactive) | GI50 (MCF7): 10.1 µM (inactive) | GI50 (MDA-MB-231): 14.7 µM (inactive) | GI50 (MDA-MB-435): 15.2 µM (inactive) | GI50 (MDA-N): 18.1 µM (inactive) | GI50 (MOLT-4): 7.59 µM (inactive) | GI50 (Malme-3M): 15.1 µM (inactive) | GI50 (NCI-H226): 14.7 µM (inactive) | GI50 (NCI-H23): 12.3 µM (inactive) | GI50 (NCI-H460): 6.85 µM (inactive) | GI50 (NCI-H522): 11.6 µM (inactive) | GI50 (NCI/ADR-RES): 2.27 µM (inactive) | GI50 (OVCAR-3): 12.4 µM (inactive) | GI50 (OVCAR-4): 4.49 µM (inactive) | GI50 (OVCAR-5): 19.5 µM (inactive) | GI50 (OVCAR-8): 8.18 µM (inactive) | GI50 (PC-3): 12.9 µM (inactive) | GI50 (RPMI-8226): 11.9 µM (inactive) | GI50 (RXF 393): 13.6 µM (inactive) | GI50 (SF-268): 14.4 µM (inactive) | GI50 (SF-295): 16 µM (inactive) | GI50 (SF-539): 17.5 µM (inactive) | GI50 (SK-MEL-28): 15.2 µM (inactive) | GI50 (SK-MEL-2): 26.8 µM (inactive) | GI50 (SK-MEL-5): 13.6 µM (inactive) | GI50 (SK-OV-3): 14.1 µM (inactive) | GI50 (SN12C): 15.2 µM (inactive) | GI50 (SNB-75): 16.7 µM (inactive) | GI50 (SR): 9.75 µM (inactive) | GI50 (SW-620): 16.2 µM (inactive) | GI50 (T47D): 14.9 µM (inactive) | GI50 (TK-10): 11.2 µM (inactive) | GI50 (UACC-257): 14.5 µM (inactive) | GI50 (UACC-62): 16.7 µM (inactive) | GI50 (UO-31): 5.62 µM (inactive)

CC1OC(Oc2c(-c3cc(O)c(O)c(O)c3)oc3cc(O)cc(O)c3c2=O)C(O)C(O)C1O (centres undefined)
GI50 (786-0): > 100 µM (inactive) | GI50 (A498): > 100 µM (inactive) | GI50 (A549): > 100 µM (inactive) | GI50 (ACHN): > 100 µM (inactive) | GI50 (BT-549): > 100 µM (inactive) | GI50 (CAKI-1): > 100 µM (inactive) | GI50 (CCRF-CEM): > 10 µM (inactive) | GI50 (COLO 205): > 100 µM (inactive) | GI50 (DU-145): > 100 µM (inactive) | GI50 (EKVX): > 100 µM (inactive) | GI50 (HCC 2998): > 100 µM (inactive) | GI50 (HCT-116): > 100 µM (inactive) | GI50 (HCT-15): > 100 µM | GI50 (HL-60): 56.6 µM (inactive) | GI50 (HOP-62): > 100 µM (inactive) | GI50 (HOP-92): > 100 µM (inactive) | GI50 (HT-29): > 100 µM (inactive) | GI50 (Hs-578T): > 100 µM (inactive) | GI50 (IGROV-1): > 100 µM (inactive) | GI50 (KM12): > 100 µM (inactive) | GI50 (LOX IMVI): > 100 µM (inactive) | GI50 (M14): > 100 µM (inactive) | GI50 (MCF7): > 100 µM (inactive) | GI50 (MDA-MB-231): 87.9 µM (inactive) | GI50 (MDA-MB-435): 57.4 µM (inactive) | GI50 (MDA-N): 31 µM (inactive) | GI50 (MOLT-4): > 100 µM (inactive) | GI50 (Malme-3M): > 100 µM (inactive) | GI50 (NCI-H226): > 100 µM (inactive) | GI50 (NCI-H23): > 100 µM (inactive) | GI50 (NCI-H522): > 100 µM (inactive) | GI50 (NCI/ADR-RES): > 100 µM (inactive) | GI50 (OVCAR-3): > 100 µM (inactive) | GI50 (OVCAR-4): > 100 µM (inactive) | GI50 (OVCAR-5): > 100 µM (inactive) | GI50 (OVCAR-8): > 100 µM (inactive) | GI50 (PC-3): > 100 µM (inactive) | GI50 (RPMI-8226): > 100 µM (inactive) | GI50 (RXF 393): > 100 µM (inactive) | GI50 (SF-268): > 100 µM (inactive) | GI50 (SF-295): > 100 µM (inactive) | GI50 (SF-539): > 100 µM (inactive) | GI50 (SK-MEL-28): > 100 µM (inactive) | GI50 (SK-MEL-2): > 100 µM (inactive) | GI50 (SK-MEL-5): > 100 µM (inactive) | GI50 (SK-OV-3): > 100 µM (inactive) | GI50 (SN12C): > 100 µM (inactive) | GI50 (SNB-19): > 100 µM (inactive) | GI50 (SNB-75): > 100 µM (inactive) | GI50 (SR): 96.8 µM (inactive) | GI50 (SW-620): > 100 µM (inactive) | GI50 (T47D): > 100 µM (inactive) | GI50 (TK-10): > 100 µM (inactive) | GI50 (U-251): > 100 µM (inactive) | GI50 (UACC-257): > 100 µM (inactive) | GI50 (UACC-62): > 100 µM (inactive) | GI50 (UO-31): > 100 µM (inactive)
